From ChEMBL document CHEMBL3822389, “New insights into 3-(aminomethyl)naphthoquinones: Evaluation of cytotoxicity, electrochemical behavior and search for structure-activity correlation” (Bioorg Med Chem Lett, 2016)

How the values were obtained:
[1] = test system: MDA-MB-435; test: Cytotoxicity against human MDA-MB-435 cells after 72 hrs by MTT assay; format: functional, cell-based
[2] = Cytotoxicity against human HCT8 cells after 72 hrs by MTT assay; format: functional, cell-based, HCT-8
[3] = Cytotoxicity against human SF295 cells after 72 hrs by MTT assay; format: functional, cell-based, SF-295
[4] = Cytotoxicity against human HL60 cells after 72 hrs by MTT assay; format: functional, cell-based, HL-60

| SMILES | IC50 ([1]; Homo sapiens, MDA-MB-435, 72 h) [µM] | IC50 ([2]; Homo sapiens, HCT-8, 72 h) [µM] | IC50 ([3]; Homo sapiens, SF-295, 72 h) [µM] | IC50 ([4]; Homo sapiens, HL-60, 72 h) [µM] | IC50 ([1]; mda-mb-435) [µM] | IC50 ([2]; hct-8) [µM] | IC50 ([3]; sf-295) [µM] | IC50 ([4]; hl-60) [µM] |
| --- | --- | --- | --- | --- | --- | --- | --- | --- |
| CC(C)(C)OC(=O)NCCCNC(C1=C(O)C(=O)c2ccccc2C1=O)c1ccccc1O (centres undefined) | 37.8 | 22.7 | 26 | 17.2 | – | – | – | – |
| CCCCCCCNC(C1=C(O)C(=O)c2ccccc2C1=O)c1ccccn1 (centres undefined) | > 40 | 1.6 | 1 | 1.8 | – | – | – | – |
| O=C1C(O)=C(C(NCc2ccccc2)c2cc(Br)ccc2O)C(=O)c2ccccc21 (centres undefined) [listing 1 of 2 here] | – | – | 17.4 | 8.4 | 25.2 | 14.9 | – | – |
| CCCCCCCCCCNC(C1=C(O)C(=O)c2ccccc2C1=O)c1ccccc1O (centres undefined) | 30.9 | 32.2 | 23.1 | 12.2 | – | – | – | – |
| O=C1C(O)=C(C(NCc2ccco2)c2ccccc2O)C(=O)c2ccccc21 (centres undefined) [listing 1 of 2 here] | – | – | – | 1.1 | 20.2 | 14.4 | 23.4 | – |
| O=C1C(O)=C(C(NCCCCl)c2cc(Br)ccc2O)C(=O)c2ccccc21 (centres undefined) | > 40 | > 40 | 28.8 | 8.4 | – | – | – | – |
| O=C1C(O)=C(C(NCCCCl)c2ccc(Cl)cc2Cl)C(=O)c2ccccc21 (centres undefined) | > 40 | > 40 | > 40 | > 40 | – | – | – | – |
| CCCCCCCNC(C1=C(O)C(=O)c2ccccc2C1=O)c1ccccc1 (centres undefined) | > 40 | > 40 | > 40 | > 40 | – | – | – | – |
| O=C1C(O)=C(CNCCCCl)C(=O)c2ccccc21 | > 40 | > 40 | > 40 | > 40 | – | – | – | – |
| CCCCCCCNC(C1=C(O)C(=O)c2ccccc2C1=O)c1cc(Br)ccc1O (centres undefined) | > 40 | > 40 | > 40 | > 40 | – | – | – | – |
| O=C1C(O)=C(C(NCc2ccco2)c2ccccn2)C(=O)c2ccccc21 (centres undefined) | > 40 | 4.4 | 3.3 | 5.8 | – | – | – | – |
| COc1ccc(NC(C2=C(O)C(=O)c3ccccc3C2=O)c2ccccn2)cc1 (centres undefined) | > 40 | > 40 | > 40 | > 40 | – | – | – | – |
| O=C1C(O)=C(C(NCc2ccccc2)c2cc(Br)ccc2O)C(=O)c2ccccc21 (centres undefined) [listing 2 of 2 here] | > 40 | 15.9 | – | – | – | – | 10.7 | 4.9 |
| O=C1C(O)=C(C(NCCCCl)c2cccc(O)c2)C(=O)c2ccccc21 (centres undefined) | > 40 | > 40 | > 40 | > 40 | – | – | – | – |
| O=C1C(O)=C(C(NCCCCl)c2ccccc2)C(=O)c2ccccc21 (centres undefined) | > 40 | > 40 | > 40 | > 40 | – | – | – | – |
| CCCCNC(C1=C(O)C(=O)c2ccccc2C1=O)c1cc(C)ccc1O (centres undefined) | – | – | – | – | 11 | 5.6 | 5.5 | 1.6 |
| CC(C)(C)OC(=O)NCCNC(C1=C(O)C(=O)c2ccccc2C1=O)c1cccc(O)c1 (centres undefined) | > 40 | > 40 | > 40 | > 40 | – | – | – | – |
| Cc1ccc(O)c(C(NCc2ccccc2)C2=C(O)C(=O)c3ccccc3C2=O)c1 (centres undefined) | – | – | 8.5 | 7.2 | 15.8 | 11.3 | – | – |

| SMILES | IC50 ([1]; Homo sapiens, MDA-MB-435, 72 h) [µM] | IC50 ([2]; Homo sapiens, HCT-8, 72 h) [µM] | IC50 ([3]; Homo sapiens, SF-295, 72 h) [µM] | IC50 ([4]; Homo sapiens, HL-60, 72 h) [µM] | IC50 ([1]; mda-mb-435) [µM] | IC50 ([2]; hct-8) [µM] | IC50 ([3]; sf-295) [µM] | IC50 ([4]; hl-60) [µM] |
| --- | --- | --- | --- | --- | --- | --- | --- | --- |
| O=C1C(O)=C(C(NCc2ccccc2)c2ccccc2O)C(=O)c2ccccc21 (centres undefined) | 18.3 | 14.4 | – | – | – | – | 11.6 | 4.6 |
| CCCCNC(C1=C(O)C(=O)c2ccccc2C1=O)c1cccc(O)c1 (centres undefined) | > 40 | > 40 | > 40 | > 40 | – | – | – | – |
| O=C1C(O)=C(C(NCCCCl)c2ccccc2O)C(=O)c2ccccc21 (centres undefined) | 30.1 | 17.7 | 17.5 | 8.1 | – | – | – | – |
| CC(C)(C)OC(=O)NCCNC(C1=C(O)C(=O)c2ccccc2C1=O)c1ccccc1O (centres undefined) | 26.3 | 10.8 | 15.9 | 19.2 | – | – | – | – |
| CCCCCCCCCCNC(C1=C(O)C(=O)c2ccccc2C1=O)c1ccccn1 (centres undefined) | 23.3 | 1.7 | 1.7 | 3.8 | – | – | – | – |
| CCCCNC(C1=C(O)C(=O)c2ccccc2C1=O)c1ccccc1O (centres undefined) | > 40 | > 40 | – | – | – | – | > 40 | > 40 |
| O=C1C(O)=C(C(NCc2ccco2)c2ccccc2O)C(=O)c2ccccc21 (centres undefined) [listing 2 of 2 here] | – | – | – | – | 2.9 | 3 | 1.8 | 1.2 |
| CC(C)(C)OC(=O)NCCNC(C1=C(O)C(=O)c2ccccc2C1=O)c1ccc(Cl)cc1Cl (centres undefined) | > 40 | > 40 | > 40 | > 40 | – | – | – | – |
| CCCCNC(C1=C(O)C(=O)c2ccccc2C1=O)c1cc(Br)ccc1O (centres undefined) | – | – | 21.4 | – | 23.9 | 12.5 | – | 6.2 |
| CC(C)(C)OC(=O)NCCNC(C1=C(O)C(=O)c2ccccc2C1=O)c1ccc([N+](=O)[O-])cc1 (centres undefined) | > 40 | > 40 | > 40 | > 40 | – | – | – | – |
| O=C1C(O)=C(C(NCCCCl)c2ccc([N+](=O)[O-])cc2)C(=O)c2ccccc21 (centres undefined) | > 40 | > 40 | > 40 | > 40 | – | – | – | – |
| CCCCCCCNC(C1=C(O)C(=O)c2ccccc2C1=O)c1ccc([N+](=O)[O-])cc1 (centres undefined) | > 40 | > 40 | > 40 | > 40 | – | – | – | – |
| CC(C)(C)OC(=O)NCCCNC(C1=C(O)C(=O)c2ccccc2C1=O)c1cccc(O)c1 (centres undefined) | > 40 | > 40 | > 40 | > 40 | – | – | – | – |
| Cc1ccc(NC(C2=C(O)C(=O)c3ccccc3C2=O)c2ccccn2)cc1 (centres undefined) | > 40 | > 40 | > 40 | > 40 | – | – | – | – |
| CCCCNC(C1=C(O)C(=O)c2ccccc2C1=O)c1ccccn1 (centres undefined) | > 40 | 12.5 | 9.5 | > 40 | – | – | – | – |
| O=C1C(O)=C(C(Nc2ccccc2)c2ccccn2)C(=O)c2ccccc21 (centres undefined) | > 40 | > 40 | > 40 | > 40 | – | – | – | – |
| CCCCCCCNC(C1=C(O)C(=O)c2ccccc2C1=O)c1cccc(O)c1 (centres undefined) | > 40 | > 40 | > 40 | > 40 | – | – | – | – |
| CC(C)(C)OC(=O)NCCCNC(C1=C(O)C(=O)c2ccccc2C1=O)c1ccccc1 (centres undefined) | > 40 | > 40 | > 40 | > 40 | – | – | – | – |
